# Patent publication US20080227854A1, “Compound 3-(1, 1-Dimethyl-Allyl)-6-Hydroxy-Chromen-2-One and its Pharmaceutically Acceptable Salts Thereof” (COUNCIL OF SCIENTIFIC & INDUSTRIAL RESEARCH, priority 2007, published 2008)
# Legend:
# [1] = system: inos gene; assay: RT-PCR analysis for inos gene expression; format: cell-based, murine
# Method: The murine macrophage cells were preincubated with the test extract, ethyl ether fraction and the compound for 2 hours (as mentioned above), washed and then challenged with LPS for 4 hours. After the incubation period the cells were washed with phosphate buffered saline (PBS), scraped and then pelleted by centrifugation. The total RNA from the pelleted cells was isolated using EZ-RNA isolation kit (Biological industries) using vendor recommended protocol. Then, cDNA was prepared from the total RNA using single strand cDNA synthesis kit (Clontech, USA) and the expression of inos gene was estimated using gene specific primers for inos gene.
# The murine macrophage cells (J774) were challenged with LPS at a concentration of 1 μg/ml with and without the four test fractions obtained in Example III for 4 hours at 37° C. in the humidified incubator with 5% CO2. The cells were harvested and were used to isolate the total RNA using (RNA isolation kit, Qiagen). The RNA was quantified spectrophotometrically and 2 μg of total RNA from each sample was used for cDNA synthesis (cDNA synthesis kit, Clontech). Gene specific PCR for the inducible nitric oxide synthase (inos) and glyceraldehyde-3-phosphatedehyrogenase (G3PDH) as house keeping gene was performed. Primer sequences were designed from cDNA sequences of the specific gene (www:ncbi.nlm.nih.gov/locuslink) using DNASTAR software. […]
# [2] = system: nitric oxide production in murine macrophage cells (J774); assay: Nitric oxide assay using Griess nitrite assay in LPS-challenged macrophages; format: cell-based
# Method: Murine macrophage cell line (J-774) was used to check the anti-inflammatory effects of the extract, sub-fractions and the isolated active compounds. The macrophages are cultured in Dulbeccos Modified Eagles Medium (DMEM) supplemented with antibiotic and antimycotic solution and 10% fetal calf serum at 37° C. in a CO2 incubator (5%). The cell viability was measured using the Trypan blue exclusion method. For inducing the inflammatory conditions the cell were stimulated with LPS (1 μg/ml) and the effect of the compounds on the inflammatory condition was assessed by measuring the inflammatory mediator, nitric oxide and the respective inos gene expression by the murine macrophages.
# The murine macrophage cells release nitric oxide along with other pro-inflammatory molecules, when stimulated with LPS. The cells were preincubated with the crude extract (300 and 500 μg/ml), ethyl ether fraction (50, 100, 150 μg/ml), the isolated active compound (5, 10, 20 μg/ml) and rutin (20, 40, 80 μM) for 2 hours and then challenged with LPS (1 μg/ml) for 16 hours. After 16 hours the cell supernatant was used to measure the nitric oxide production as nitrite using Griess nitrite assay (Lee et al., 2003, Life Science 73, 1401-1412). Equal amount of cell supernatant was incubated with Griess reagent for 10 minutes at room temperature and the magenta color developed was measured using spectrophotometer.
# Each of the four fractions obtained in Example III were then used in different concentrations (50 μg/ml, 100 µg/ml and 150 μg/ml) for their effect on nitric oxide inhibition in vitro. Murine macrophages (J774) were maintained in DMEM medium, 37° C. in CO2 incubator (5% CO2). The cells were harvested and challenged with LPS (Sigma) at a concentration of 1 μg/ml with and without the four test fractions obtained in Example III for 16 hours at 37° C. in the humidified incubator with 5% CO2. After 16 hours the cell free supernatant was collected and the nitric oxide production was measured as described by Lee et al. Briefly 100 μl of supernatant samples were incubated for 10 min at room temperature with an equal volume of Griess reagent (0.1% naphthalene diamine dihydrochloride, 1% sulfanilamide in 5% H2SO4) in microtitre plate. The absorbance at 550 nm was measured. Sodium nitrite was used as the standard.
# [3] = system: Balb/c mice; assay: LPS induced endotoxemia in Balb/c mice, total nitrite in plasma; format: in vivo
# Method: The HPLC purified lead compound was suspended in phosphate buffered saline (PBS) at a concentration of 20 mg/ml for in vivo experiment. Balb/c mice, 6 to 8 week of age, weighing 23-25 g, were housed in micro-barrier cages on sterile bedding and fed ad libitum water and food. The animals were divided into three groups containing 6 mice in each group. Four milligrams (160 mg/kg body weight) of the isolated lead compound was administered intra-peritoneally (i.p.) 2 hours prior to LPS challenge. After 2 hours 150 μg LPS was injected i.p., and the mice were kept for 8 hours. In negative control mice, PBS was injected whereas, only LPS injected mice were used as positive control. After 8 hours of LPS injection, the blood was collected in ACD buffer from each mouse by retro-orbital puncture. The blood samples were immediately centrifuged and the plasma samples were collected and stored at −20° C. till nitrite assay. The plasma samples were then diluted 1:1 using 1× reaction buffer (total nitrite estimation kit, R & D systems, USA) and protein from the plasma was removed using 10 kDa centricon (Centricon, USA). Then protein free plasma samples were used for total nitrite estimation (NO^2−+NO^3−) using the same kit.
# The Balb/c mice were used to validate the in vivo effect of the active compound on endotoxin induced inflammation by LPS. Balb/c mice, 6 to 8 week of age, weighing 23-25 g, were housed in micro-barrier cages on sterile bedding and fed ad libitum water and food. The animals were divided into three groups containing 6 mice in each group. Four milligrams (160 mg/kg body weight) of the active compound was preinjected intra-peritonially (i.p.) into the mice for two hours and then LPS (150 μg) was injected i.p. and left for eight hours. […] The plasma from the blood samples were collected by centrifuging at […] for 10 minutes and stored at −80° C. till nitric oxide was analyzed using Griess nitrite assay. The total nitrite in the plasma samples were detected using nitric oxide (NO^2−/NO^3−) assay kit (R & D systems, USA). […]
# [4] = system: murine macrophage cells (J774); assay: Cytotoxicity assay using MTT; format: cell-based; details: for Cell viability (%): J774, MTT
# Method: The murine macrophage cells were plated in cell culture plates and then treated with or without the crude extract/ethyl ether fraction/purified compound. The cells were then washed and challenged with LPS (1 μg/ml) for 16 hours. The MTT (5 mg/ml in PBS) was then added and the cells were further incubated for 4 hours at 37° C. in CO2 incubator. MTT solubilization buffer was then added and absorbance at 590 nm was determined.
structure (smiles),measurement,setting,value
"C=CC(C)(C)c1cc2cc(O)ccc2oc1=O [Rg-001, 3-(1,1-dimethyl-allyl)-6-hydroxy-chromen-2-one]",inhibition of inos gene,[1],70%
same,effect on inos gene expression,"[1]; J774, LPS challenge",inhibit the gene expression significantly
same,Nitric oxide inhibition (%),"[2]; 5 μg (21.74 μM), J774, LPS 1 μg/ml 16 h, 21.74 µM",25.4%
same,Nitric oxide inhibition (%),"[2]; 20 μg (87 μM), J774, LPS 1 μg/ml 16 h, 87 µM",63.5%
same,inhibition of nitric oxide production,"[2]; 5, 10 and 20 μg/ml, J774, LPS",significant inhibition
same,inhibition at 21.74 µM,"[2]; Mus musculus, J774, 16 h, 5 μg (21.74 μM), J774, LPS 1 μg/ml 16 h",25%
same,inhibition at 43.5 µM,"[2]; Mus musculus, J774, 16 h, 10 μg (43.5 μM), J774, LPS 1 μg/ml 16 h",40%
same,inhibition at 87 µM,"[2]; Mus musculus, J774, 16 h, 20 μg (87 μM), J774, LPS 1 μg/ml 16 h",70%
same,inhibition of total nitrite in the plasma samples,"[3]; 160 mg/kg body weight i.p. 2 hours prior to LPS (150 μg), blood after 8 hours",> 75%
same,behavioral condition of treated mice,"[3]; 160 mg/kg i.p., 8 hours after LPS, compared to the LPS challenged mice",normal behavioral condition
same,in-vivo inflammation (NO inhibition),[3]; effective dose of 40 mg/kg to 160 mg/kg body weight,60% to 80
same,Cell viability (%),[4]; 5 μg (21.74 μM),>85%
same,Cell viability (%),[4]; 10 μg (43.5 μM),>85%
same,Cell viability (%),[4]; 20 μg (87 μM),>85%
same,Cell viability (%),"[4]; 20 μg (87 μM), listed as 3-(1,1-dimethyl-allyl)-6-hydroxy-chromen-2-one",> 85%
same,cell viability,[4]; all the doses ranging from 20 to 100 μg/ml,> 85%
same,viability of macrophage cells,"[4]; highest concentration 50 μg i.e. 217.5 μM, MTT",> 85%
"C[C@@H]1O[C@@H](OC[C@H]2O[C@@H](Oc3c(-c4ccc(O)c(O)c4)oc4cc(O)cc(O)c4c3=O)[C@H](O)[C@@H](O)[C@@H]2O)[C@H](O)[C@H](O)[C@H]1O [Rutin, reference compound]",inhibition at 20 µM,"[2]; Mus musculus, J774, 16 h, 12.2 μg (20 μM), J774, LPS 1 μg/ml 16 h",11%
same,inhibition at 40 µM,"[2]; Mus musculus, J774, 16 h, 24.4 μg (40 μM), J774, LPS 1 μg/ml 16 h",20.6%
same,inhibition at 80 µM,"[2]; Mus musculus, J774, 16 h, 48.8 μg (80 μM), J774, LPS 1 μg/ml 16 h",27%
same,Cell viability (%),[4]; 12.2 μg (20 μM),>85%
same,Cell viability (%),[4]; 24.4 μg (40 μM),>85%
same,Cell viability (%),[4]; 48.8 μg (80 μM),≦75%
